In assay [1] the test system is circadian rhythm of hamsters. The conditions noted are these: cited from earlier work.
The target in another assay is 5-HT7 receptor (Homo sapiens, UniProt P34969). The conditions noted are these: cited from earlier work.
The subject of the next assay is 5-HT7 receptor promoter. The experiment in a line: transient transfection luciferase reporter assay with 5-HT7 promoter constructs in HEK293T cells, barbiturate treatment. The class given is cell-based, human. As for the experimental part: HEK293T cells were maintained in Dulbecco's modified Eagle's medium supplemented with 100 units/ml penicillin, 100 μg/ml streptomycin, and 10% newborn calf serum. These cells were maintained at 37° C. in a humidified atmosphere of 5% CO2.
10^5 cells/cm^2 in 24-well dishes were transfected with 150 ng promoter plasmid and 50 ng neogal (served as an internal control), using the standard calcium phosphate coprecipitation method. 24 hours after transfection, cells were washed once with PBSA and lysed in 150 μl 100 mM potassium phosphate (pH 7.8), 0.2% Triton X-100. The samples were analyzed for luciferase activity as described previously (Vanden Berghe et al., 1998). β-Galactosidase activity was measured using Galacto Star (Tropix) as substrate. For the barbiturate experiments, treatment with different barbiturates started 24 hours after transfection of the cells
According to MatInspector, a putative BARBIE (Barbiturate Inducible Element) is present in the promoter region of the 5-HT7 receptor. To investigate the possible influence of barbiturates on 5-HT7 promoter activity, we transiently transfected HEK293T cells with the different promoter constructs and treated the transfected cells with barbiturates for 24 h (FIG. 6a). […] The reduction varied from 30-50% depending on the promoter construct used and the type of barbiturate.
In general terms: Reporter assays use an easily measured gene product as a stand-in for the process of interest.

The subject of the next assay is 5-HT7 promoter. The experiment in a line: luciferase reporter assay in NS20Y cells transiently transfected with the F1000 construct, mithramycin A treatment. The class given is cell-based, mouse. The conditions noted are these: increasing concentrations, 24 h. On the procedure:
N2A and NS20Y cells were maintained in Dulbecco's modified Eagle's medium supplemented with 100 units/ml penicillin, 100 μg/ml streptomycin, and 10% foetal calf serum. These cells were maintained at 37° C. in a humidified atmosphere of 5% CO2. 4×10^5 cells in 6 well dishes were transfected with 500-1000 ng promoter construct and 300 ng neogal (served as internal control), using JetPEI a cationic polymer transfection reagent (Qbiogene).
Cells were treated with different concentrations of Mithramycin A for 24 hours.
The significance of binding by Sp1 to the 5-HT7 promoter for transcriptional activity was confirmed in experiments with mithramycin A, a compound that interferes with Sp1 binding to GC boxes in DNA.

A further assay concerns 5-HT7 mRNA. The experiment in a line: RT-PCR analysis of endogenous 5-HT7 mRNA levels in 1321-N1 cells. The class given is cell-based. As to conditions: 1321-N1 human astrocytoma cells, different concentrations, 24 h. On the procedure:
(§1) 132-1N1 human astrocytoma cells were seeded into 58 cm^2 plates; 12 hours after seeding the cells were cultured with either medium alone (−) or medium containing 10 nM, 100 nM, 500 nM, 1 μM, 2 μM or 5 μM Mithramycin A (Serva). Total RNA was isolated using a RNeasy, total RNA isolation kit (Qiagen). cDNA was synthesized using AMV reverse transcriptase (Promega). The cDNA was then amplified by PCR in a total volume of 30 μl containing 10 pmol of each primer, 200 μM dNTP, Taq DNA polymerase buffer, 2,5 units of Taq and 5 μl of cDNA. PCR conditions were 94° C., 30 sec; 56° C., 1 min; 72° C., 2 min; for 35 cycles. PCR products were analyzed by electrophoresis through 6% polyacrylamide gel.

In the next assay the test system is GAPDH. The assay can be described thus: RT-PCR analysis of GAPDH mRNA levels in 1321-N1 cells. The class given is cell-based, human. The conditions noted are these: different concentrations, 24 h. On the procedure: as §1
[2] abbreviates: time course, HEK293T cells, 2000luc+ and 1000luc+, 1.5 mM.

“Also recorded” adds a separate entry of the source. A value given as a limit tells only on which side of the number the result lay.

5-HT7 receptor, sequence (P34969 whole entry): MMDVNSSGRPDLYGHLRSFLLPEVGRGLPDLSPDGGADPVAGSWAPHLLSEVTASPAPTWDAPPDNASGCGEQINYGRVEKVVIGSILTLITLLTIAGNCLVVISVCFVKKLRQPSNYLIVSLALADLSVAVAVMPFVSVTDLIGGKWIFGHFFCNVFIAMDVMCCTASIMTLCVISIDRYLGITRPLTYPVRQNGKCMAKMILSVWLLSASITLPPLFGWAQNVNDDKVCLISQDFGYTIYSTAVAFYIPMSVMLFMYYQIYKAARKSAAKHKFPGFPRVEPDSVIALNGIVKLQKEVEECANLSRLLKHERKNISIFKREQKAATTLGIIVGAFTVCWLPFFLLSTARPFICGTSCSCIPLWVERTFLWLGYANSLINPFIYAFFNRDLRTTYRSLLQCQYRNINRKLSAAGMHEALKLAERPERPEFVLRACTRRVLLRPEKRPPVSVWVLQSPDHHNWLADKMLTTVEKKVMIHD

Consider `CCCN(CCC)C1CCc2cccc(O)c2C1` (stereo not drawn) [8-OH-DPAT], for which the “effect on circadian rhythm” value in assay [1] was “shifted the circadian rhythm”. Also, the “affinity for the 5-HT7 receptor” value on 5-HT7 receptor is “high affinity”.
`CCC1(CCC(C)C)C(=O)NC(=O)NC1=O` [Amobarbital]: the “relative potency in repressing promoter activity” value with 5-HT7 receptor promoter (HEK293T cells, 1,5 mM, 24 h, Amobarbital versus Phenobarbital) was “somewhat more potent”. In addition, the “effect on 5-HT7 receptor promoter activity” value in the assay with 5-HT7 receptor promoter (HEK293T cells, transient transfection, 1.5 mM barbiturate, 24 h) is “repress 5-HT7 receptor promoter activity”.
Regarding `CCC1(c2ccccc2)C(=O)NC(=O)NC1=O` [Phenobarbital], in the assay on 5-HT7 receptor promoter (setting [2]), the “time at which repressive effect reached a maximum” value amounted to 16 h and the “time at which repressive effect was already present” value is at most 6 h.
mithramycin A: in the assay with 5-HT7 promoter, the 5-HT7 promoter activity entry is recorded as “dose-dependent loss of promoter activity; also recorded: inhibits 5-HT7 promoter activity”. The “5-HT7 mRNA levels” value in the assay on 5-HT7 mRNA is “significant decrease”. In addition, the “levels of GAPDH” value in the assay on GAPDH is “unaffected”.

The values above are taken from patent US20050255469A1, “Human 5-ht7 receptor promoter sequence” (priority 2002, published 2005).
